# Assays:
# HeLa cells = assay: HeLa cell inhibition assay (SRB cell viability); assay type: cell-based; settings: Homo sapiens, HeLa, 72 h, IC50 range
# Protocol: HeLa cells growing in log phase were harvested and seeded at 1000 cells/well (200 μl final volume) into 96-well tissue culture plates. Following 24 h of cell growth cells were treated with compounds (final concentration of 20 μM). Plates were then re-incubated for a further 72 h before a sulphorhodamine B (SRB) cell viability assay was conducted according to Skehan 1990 J Natl Canc Inst 82, 1107-1112.
# (§1) Data were expressed as a percentage inhibition of the control, measured in the absence of inhibitor, as follows:— % inhibition=100−[(S^i/S^o)×100] where S^i is the signal in the presence of inhibitor and S^o is the signal in the presence of DMSO.
# IC50 values were determined by non-linear regression analysis, after fitting the results of eight data points to the equation for sigmoidal dose response with variable slope (% activity against log concentration of compound), using Graphpad Prism software.
# (§2) IC50 results were allocated to one of 3 ranges as follows: […]
# HUT = HUT cell inhibition assay (WST-1 cell viability); assay type: cell-based; settings: HUT cells, 72-96 h, WST-1 assay, IC50 range
# Protocol: (§3) Cancer cell lines (U937 and HUT) growing in log phase were harvested and seeded at 1000-2000 cells/well (100 μl final volume) into 96-well tissue culture plates. Following 24 h of growth cells were treated with compound. Plates were then re-incubated for a further 72-96 h before a WST-1 cell viability assay was conducted according to the suppliers (Roche Applied Science) instructions.
# as §1
# (§4) Dose response curves were generated from 8 concentrations (top final concentration 10 μM, with 3-fold dilutions), using 6 replicates.
# (§5) IC50 values were determined by non-linear regression analysis, after fitting the results to the equation for sigmoidal dose response with variable slope (% activity against log concentration of compound), using Graphpad Prism software.
# as §2
# U937 = U937 cell inhibition assay (WST-1 cell viability); assay type: cell-based; settings: Homo sapiens, U-937; U937 cells, 72-96 h, WST-1 assay, IC50 range
# Protocol: as §3, §1, §4, §5, §2
# [1] = biological target: histone deacetylase activity (HeLa nuclear extract); assay: HDAC fluorescent activity assay (Biomol, Fluor de Lys substrate); assay type: biochemical; settings: IC50 range
# Protocol: The ability of compounds to inhibit histone deacetylase activities was measured using the commercially available HDAC fluorescent activity assay from Biomol. In brief, the Fluor de Lys™ substrate, a lysine with an epsilon-amino acetylation, is incubated with the source of histone deacetylase activity (HeLa nuclear extract) in the presence or absence of inhibitor. Deacetylation of the substrate sensitises the substrate to Fluor de Lys™ developer, which generates a fluorophore.
# Data are expressed as a percentage of the control, measured in the absence of inhibitor, with background signal being subtracted from all samples, as follows:— % activity=[(S^i−B)/(S^o−B)]×100 where S^i is the signal in the presence of substrate, enzyme and inhibitor, S^o is the signal in the presence of substrate, enzyme and the vehicle in which the inhibitor is dissolved, and B is the background signal measured in the absence of enzyme.
# Histone deacetylase activity from crude nuclear extract derived from HeLa cells was used for screening. The preparation, purchased from 4C (Seneffe, Belgium), was prepared from HeLa cells harvested whilst in exponential growth phase. The nuclear extract is prepared according to Dignam JD1983 Nucl. Acid. […] The final buffer composition was 20 mM Hepes, 100 mM KCl, 0.2 mM EDTA, 0.5 mM DTT, 0.2 mM PMSF and 20% (v/v) glycerol.
Compound,IC50 (HeLa cells) [µM],IC50 (U937) [µM],IC50 [1] [µM],IC50 (HUT) [µM]
"O=C(NO)c1cnc(N2CC3C(C2)C3N(Cc2cccnc2)Cc2ccc3ccccc3c2)nc1 (stereo not drawn) [Example 58, N-Hydroxy 2-[6-(naphthalen-2-ylmethylpyridin-3-ylmethylamino)-3-aza-bicyclo[3.1.0]hex-3-yl]pyrimidine-5-carboxamide]",0.331 to 3.3,0.331 to 3.3,0.101 to 1,0.331 to 3.3
"O=C(NO)c1cnc(N2CC3C(C2)C3N2Cc3ccccc3C2)nc1 (stereo not drawn) [Example 64, N-Hydroxy 2-[6-(1,3-dihydro-2H-isoindol-2-yl)-3-azabicyclo[3.1.0]hex-3-yl]pyrimidine-5-carboxamide]",0.331 to 3.3,0.331 to 3.3,< 0.1,< 0.33
"CN(C1C2CN(c3ncc(C(=O)NO)cn3)CC21)S(=O)(=O)c1ccc2ccccc2c1 (stereo not drawn) [Example 45, N-Hydroxy 2-{6-[methyl(naphthalene-2-sulfonyl)-amino]-3-aza-bicyclo[3.1.0]hex-3-yl}pyrimidine-5-carboxamide]",0.331 to 3.3,0.331 to 3.3,< 0.1,< 0.33
"O=C(NO)c1cnc(N2CC(NS(=O)(=O)c3ccc4ccccc4c3)C2)nc1 [Example 70, N-Hydroxy 2-{3-[(2-naphthylsulfonyl)amino]azetidin-1-yl}pyrimidine-5-carboxamide]",> 3.3,> 3.3,< 0.1,0.331 to 3.3
"CCCCc1ccc(CNC2C3CN(c4ncc(C(=O)NO)cn4)CC32)cc1 (stereo not drawn) [Example 23, N-Hydroxy 2-[6-(4-butylbenzylamino)-3-azabicyclo[3.1.0]hex-3-yl]pyrimidine-5-carboxamide]",0.331 to 3.3,0.331 to 3.3,< 0.1,< 0.33
"O=C(NO)c1cnc(N2CC3C(C2)C3NCc2cc(F)cc(F)c2)nc1 (stereo not drawn) [Example 28, N-Hydroxy 2-{6-[(3,5-difluorobenzyl)amino]-3-azabicyclo[3.1.0]hex-3-yl}pyrimidine-5-carboxamide]",< 0.33,< 0.33,< 0.1,< 0.33
"O=C(NO)c1cnc(N2CC3C(C2)C3N2CCc3ccccc3C2)nc1 (stereo not drawn) [Example 66, N-Hydroxy 2-[6-(3,4-dihydroisoquinolin-2(1H)-yl)-3-azabicyclo[3.1.0]hex-3-yl]pyrimidine-5-carboxamide]",0.331 to 3.3,0.331 to 3.3,< 0.1,0.331 to 3.3
"O=C(NO)c1cnc(N2CC3C(C2)C3NC(=O)c2cccs2)nc1 (stereo not drawn) [Example 18, N-Hydroxy 2-{6-[(thien-2-ylcarbonyl)amino]-3-azabicyclo[3.1.0]hex-3-yl}pyrimidine-5-carboxamide]",> 3.3,> 3.3,< 0.1,0.331 to 3.3

# Now from value to compound, other results behind:
IC50 (HeLa cells) [µM],IC50 (U937) [µM],IC50 [1] [µM],Compound,IC50 (HUT) [µM]
< 0.33,< 0.33,< 0.1,"O=C(NO)c1cnc(N2CC3CN(Cc4ccc5ccccc5c4)CC3C2)nc1 (stereo not drawn) [Example 79, N-Hydroxy 2-(5-naphthalen-2-ylmethylhexahydropyrrolo[3,4-c]pyrrol-2(1H)-yl)pyrimidine-5-carboxamide]",< 0.33
> 3.3,> 3.3,> 1,"O=C(NO)c1cnc(N2CC3C(C2)C3N(Cc2ccc3ccccc3c2)Cc2ccc3ccccc3c2)nc1 (stereo not drawn) [Example 57, N-Hydroxy 2-[6-(bisnaphthalen-2-ylmethylamino)-3-azabicyclo[3.1.0]hex-3-yl]pyrimidine-5-carboxamide]",> 3.3
< 0.33,< 0.33,< 0.1,"CC(=O)N(Cc1ccc2ccccc2c1)C1C2CN(c3ncc(C(=O)NO)cn3)CC21 (stereo not drawn) [Example 60, N-Hydroxy 2-[6-(acetylnaphthalen-2-ylmethylamino)-3-azabicyclo[3.1.0]hex-3-yl]pyrimidine-5-carboxamide]",< 0.33
0.331 to 3.3,0.331 to 3.3,< 0.1,"O=C(NO)c1cnc(N2CC3C(CNCc4ccc(Cl)cc4)C3C2)nc1 (stereo not drawn) [Example 73, N-Hydroxy 2-(6-{[(4-chlorobenzyl)amino]methyl}-3-azabicyclo[3.1.0]hex-3-yl)pyrimidine-5-carboxamide]",< 0.33
